Data: patent US20100311726A1, “REDUCTION OF BETA-AMYLOID LEVELS BY TREATMENT WITH THE SMALL MOLECULE DIFFERENTIATION-INDUCING FACTOR” (priority 2007, published 2010)
Non-standard residues stand in square brackets, D forms with d. Residues, ends and D or L forms follow the SMILES beside them. Nle = CCCC[C@H](N)C(=O)O

Assays:
APP [1] = experiment: APP processing (mature APP, αCTF, βCTF) by western blot; type: cell-based, human; conditions: CHO-7W, 250 nM
Experimental: Total protein was collected in RIPA buffer plus protease inhibitors on ice and briefly sonicated. They lysate was centrifuged at 14,000 rpm for 15 minutes. […] After washing, the blots were probed with a polyclonal HRP-tagged secondary Ab (1:5000) for 1 hour at room temperature then visualized.
A second possibility is that DIF-1 potentiates the activity of y-secretase and processing of αCTFs and βCTFs. To assess this latter possibility, we examined the effect of DIF-1 in the presence of DAPT, a potent γ-secretase inhibitor. Even numbers of CHO-7W cells were plated in 6-well dishes and allowed to grow overnight. The next day, the media was removed and replaced with control media (2 ml) or media containing DAPT, DIF-1 or DAPT and DIF-1. […] After washing, blots were probed with HRP-conjugated secondary antibodies (1:5000) for 1 hour at room temperature. […] It would appear that the mechanism of DIF-1 on APP metabolism is not likely to involve γ-secretase activity, but might impact on either BACE1 levels or activity.
To evaluate this probability, we treated CHO-CAB cells that overexpress human APP^751 and human BACE1 with 30 μM of DIF-1. More specifically, even numbers of CHO-CAB cells were plated in 6-well dishes and allowed to grow overnight. The next day, the media was removed and replaced with control media (2 ml) or media containing DAPT, DIF-1 or DAPT and DIF-1. […] After washing, blots were probed with HRP-conjugated secondary antibodies (1:5000) for 1 hour at room temperature. Each treatment is shown above the blot. […] It would appear that DIF-1 has a greater effect on APP maturation in CHO-CAB cells. Longer exposures reveal the presence of mature APP bands in DIF-1 treated cells.
Next dose-dependent effects of DIF-1 on APP processing were examined. Even numbers of CHO-CAB cells were plated in 6-well dishes and allowed to grow overnight. The next day, cells were treated overnight with either vehicle or increasing concentrations of DIF-1 (5-30 μM).

cyclin D1 = experiment: Cyclin D1 level by western blot; conditions: for effect on cyclin D1 level (proteasome inhibitor alone): CHO-CAB, 10 μM
Experimental: Following treatment of each cell line with or without DIF-1 (1-30 μM) and/or other inhibitors, cells were lysed in cold RIPA buffer (20 mM Tris-HCl (pH 7.4) buffer containing 150 mM NaCl, 2 mM EDTA, 1% Nonidet® P-40 (NP-40), 50 mM NaF, 1 mM Na3VO4, 1 mM Na2MoO4, 10 mg/ml aprotinin, and 10 mg/ml leupeptin), supplemented with protease inhibitor tablets from Roche (Switzerland). Protein amounts were quantified in triplicate using the BCA assay from Pierce. Equal amounts of protein extracts were fractionated by sodium dodecyl sulfate polyacrylamide gel electrophoresis (SDS-PAGE) and transferred to polyvinylidene difluoride membranes. The membranes were blocked for 1 hour with 5% fat-free powdered milk or 5% BSA, incubated overnight at 4° C. with primary antibodies (1:1000 or 1:5000), washed with TTBS and then incubated at room temperature with appropriate peroxidase-conjugated secondary antibodies (1:5000). Blots were repeatedly washed with TTBS and target proteins were detected using an enhanced chemiluminescence (ECL) system (Amersham Pharmacia Biotech, New Jersey, USA) and XOMAT™ Kodak® film.
Densitometry analysis of western blot data was performed on a PC computer using QuantityOne® software obtained from Bio-Rad® Laboratories, Inc. (California, USA). Loading variations between western blot lanes were normalized according to the GAPDH signal prior to any experimental quantification. Each western blot presented in the figures is representative of at least five independent experiments to ensure reproducibility of the results unless noted otherwise.
CHO-CAB cells were treated with lithium chloride (10mM). […] To ensure that the results observed were due to proteasome inhibition, we assessed the effects of lactacystin and ALLN on cyclin D1 levels. […] The data represents that of three separate experiments.

human APLP1 = experiment: APLP1 metabolism by western blot in CHO-A1 cells; type: cell-based; conditions: 30 μM DIF-1 or 250 nM DAPT, ~20 hours
Experimental: CHO cells that stably express human APLP1, which is a closely related family member of the APPs and known γ-secretase substrate (Eggert et al., 2004), were treated with 30 μM DIF-1, DAPT or DIF-1 plus DAPT (FIG. 7). Equal numbers of CHO-A1 cells stably expressing human APLP1 cells were plated in 6-well dishes and allowed to grow overnight. The next day, the media was removed and replaced with control media (2 ml) or media containing DAPT, DIF-1 or DAPT and DIF-1. […] After washing, blots were probed with HRP-conjugated secondary antibodies (1:5000) for 1 hour at room temperature.

[2] = test system: APP phosphorylation on residue T668; experiment: APP T668 phosphorylation by western blot; type: cell-based, human; conditions: CHO-7W and CHO-CAB; DAPT alone, or DAPT with DIF-1 (30 μM)
Experimental: Next, whether or not DIF-1 treatment affected the degree of T668 phosphorylation was examined by western blot (FIG. 11). Briefly, effects of DIF-1 on APP T668 phosphorylation were compared between vehicle-treated control and 250 nM of DAPT identically in each cell line. Western analysis of 15 μg of total protein was probed overnight at 4° C. with anti-APP Cterminal antibody (C66-676-695) (1:5000) and then detected on film using ECL and HRP-conjugated secondary antibodies (1:5000). […] This band has also been detected in other CHO lines where APP expression is high (˜3 fold) and by different C-terminal APP antibodies (Ab8717-676-695; except 6E10 which recognizes the N-terminal residues 1-17 of the Aβ sequence. For FIG. 11A, cells were treated with DAPT, and DAPT+DIF then were probed with anti-APP antibody (C66). For FIG. 11B, CHO-7W cells were treated with DAPT, and DAPT+DIF, and then probed with polyclonal anti-P668 APP antibody (1:1000) overnight at 4° C. in 5% BSA. After washing, cells were probed with a rabbit HRP-conjugated secondary antibody (1:5000) in BSA for 1 hour at room temperature and signals were detected on film using ECL. FIG. 11C represents CHO-CAB cells and FIG. 11D represents H4 cells expressing APP^SW.

APP [3] = experiment: APP processing (mature APP, αCTF, βCTF) by western blot; type: cell-based, human; conditions: for effect of proteasome inhibitor alone on APP CTF levels: CHO-CAB, 10 μM; for effect of kinase inhibitor alone on APP processing / CTF levels: CHO-7W or CHO-CAB, LiCl 1-10 mM; for effect of kinase inhibitor pretreatment on the effect of DIF-1 on APP processing: with 30 μM DIF-1
APP ubiquitin-conjugates = APP ubiquitin-conjugates by immunoprecipitation and western blot; conditions: CHO-CAB; DIF-1 30 μM, lactacystin 10 μM, ALLN 10 μM
Experimental: For immunoprecipitations, 1 mg of total protein was diluted with extraction buffer and precleared with protein G-conjugated agarose beads (Pierce). The precleared samples were incubated overnight with anti-APP antibodies or nonimmune IgG (Jackson Laboratories). Immunocomplexes were captured with Protein G agarose beads, washed five times with extraction buffer and heated for 5 min at 95° C. in SDS gel-loading buffer.
CHO-CAB cell protein extracts (1 mg) were immunoprecipitated using APP antibodies. The immunoprecipitated complexes were analyzed by western blotting using anti-ubiquitin antibodies. […] Molecular Weight markers (kDa) are shown on the left. GAPDH levels are shown below each blot. The data represents that of three separate experiments.
To determine whether the proteasome-mediated degradation of APP is accompanied by increased levels of poly-ubiquitinated APP, we investigated the ubiquitination status of APP in extracts of CHO-CAB cells treated in the absence or presence of DIF-1 (30 μM), lactacystin (10 μM), ALLN (10 μM), DIF-1+lactacystin and DIF-1+ALLN.

GSK = conditions: cited from earlier work
Dictyostelium discoideum = conditions: cited from earlier work
[4] = test system: human leukemia K562 cells; conditions: Kubohara 1999; cited from earlier work

For `C[C@H](NC(=O)Cc1cc(F)cc(F)c1)C(=O)N[C@H](C(=O)OC(C)(C)C)c1ccccc1` [DAPT, N4-[N-(3,5-difluorophenacetyl-1-alanyl)]-S-phenylglycine tert-butyl ester, reference compound], the “α- and βCTF levels with γ-secretase inhibitor alone” value (APP [1]) was “increase in the levels of both α- and βCTFs”, the “effect on cyclin D1 level” value (cyclin D1; CHO-7W, 30 μM DIF-1 or 250 nM DAPT) was “no effect” and the “APLP1 maturation, protein levels, CTF levels” value (human APLP1) was “significant increase in the levels of APLP1 CTF”. For the same compound, the “amount of T668 phosphorylated APP CTFs” value [2] was “greatly increased the amount of detectable phosphorylated APP at residue T668”.

In the case of `CCCC[C@@H](C=O)NC(=O)[C@H](CC(C)C)NC(=O)[C@H](CC(C)C)NC(C)=O` [ALLN, Acetyl-L-Leucyl-L-Leucyl-L-Norleucinal, reference compound] (Ac-Leu-Leu-[Nle]-aldehyde), the “effect on cyclin D1 level (proteasome inhibitor alone)” value (cyclin D1) is reported as “increased the levels of cyclin D1”, the “effect of proteasome inhibitor alone on APP CTF levels” value (APP [3]) is reported as “induced an increase in CTF levels” and the “level of APP ubiquitin-conjugates (single agent)” value (APP ubiquitin-conjugates) is reported as “increased the level of APP ubiquitin conjugates”.

In the case of `CC(=O)N[C@@H](CSC(=O)[C@]1([C@@H](O)C(C)C)NC(=O)[C@H](C)[C@@H]1O)C(=O)O` [lactacystin, 3S-hydroxy-2R-(1-hydroxy-2-methylpropyl)-4R-methyl-5-oxo-2 pyrrolidine-carboxylate-N-acetyl-L-cysteine, reference compound], the “effect on cyclin D1 level (proteasome inhibitor alone)” value (cyclin D1) is reported as “increased the levels of cyclin D1”, the “effect of proteasome inhibitor alone on APP CTF levels” value (APP [3]) is reported as “induced an increase in the level of αCTF and βCTF” and the “level of APP ubiquitin-conjugates (single agent)” value (APP ubiquitin-conjugates) is reported as “increased the level of APP ubiquitin conjugates”.

With `CC[C@H](CO)Nc1nc(NCc2ccccc2)c2ncn(C(C)C)c2n1` [roscovitine, 2-(R)-[[9-(1-Methylethyl)-6-[(phenylmethyl)amino]-9H-purin-2-yl]amino]-1 butanol] the “effect of kinase inhibitor alone on APP processing / CTF levels” value (APP [3]) was “no effect on APP metabolism” and the “effect of kinase inhibitor pretreatment on the effect of DIF-1 on APP processing” value (APP [3]) was “neither blocked nor potentiated the effect of DIF-1 on APP CTF production”.

In the case of `O=C1Cc2c([nH]c3ccc(Br)cc23)-c2ccccc2N1` [kenpaullone, 9-bromo-7,12-dihydro-indolo[3,2d][1]benzazepin-6(5H)-one], the IC50 (GSK) is given as 0.023 µM, the “effect of kinase inhibitor alone on APP processing / CTF levels” value (APP [3]) is given as “no effect on the level of APP CTFs” and the “effect of kinase inhibitor pretreatment on the effect of DIF-1 on APP processing” value (APP [3]) is given as “neither attenuated nor potentiated the effect of DIF-1 on APP processing”.

In the case of `CCCCCC(=O)c1c(O)cc(OC)c(Cl)c1O` [DIF-3, 1-(3-chloro-2,6-dihydroxy-4-methoxyphenyl)hexan-1-one], the “activity in inducing stalk-cell differentiation” value (Dictyostelium discoideum; in words) is given as “much less active” and the “anti-leukemic potency among DIF analogs” value [4] is given as “most potent anti-leukemic agent”.

For `CCCCC(=O)c1c(O)c(Cl)c(OC)c(Cl)c1O` [DIF-2, 1-(3,5-dichloro-2,6-dihydroxy-4-methoxyphenyl)pentan-1-one], the “specific activity relative to DIF-1 (stalk-cell differentiation)” value (Dictyostelium discoideum; percent of the activity of DIF-1) is given as about 40%.
